Measured values reported in ChEMBL document CHEMBL3763064, “Discovery of silyl proline containing HCV NS5A inhibitors with pan-genotype activity: SAR development” (Bioorg Med Chem Lett, 2016).

Key:
Assay type in all cases: functional, organism-based, Hepacivirus hominis
[1] = system: Hepatitis C virus; test: Antiviral activity against HCV genotype 3a by replicon assay
[2] = system: Hepatitis C virus; test: Antiviral activity against HCV genotype 1a expressing NS5A Y93H mutant by replicon assay; settings: subtype 1a
[3] = system: Hepatitis C virus; test: Antiviral activity against HCV genotype 1b by replicon assay
[4] = system: Hepatitis C virus; test: Antiviral activity against HCV genotype 2a by replicon assay
[5] = system: Hepatitis C virus; test: Antiviral activity against HCV genotype 1a by replicon assay; settings: subtype 1a

Row | Compound | EC50 [1] | EC50 [2] | EC50 [3] | EC50 [4] | EC50 [5]
1 | COC(=O)N[C@H](C(=O)N1CCC[C@H]1c1ncc(-c2ccc(-c3ccc(-c4cnc([C@@H]5CCCN5C(=O)[C@@H](NC(=O)OC)C(C)C)[nH]4)cc3)cc2)[nH]1)C(C)C | 0.7 nM | 198 nM | 0.01 nM | 0.04 nM | –
2 | COC(=O)N[C@H](C(=O)N1C[Si](C)(C)C[C@H]1c1ncc(-c2ccc(-c3ccc4c(ccc5nc([C@@H]6CCCN6C(=O)[C@@H](NC(=O)OC)C(C)C)[nH]c54)c3)nc2)[nH]1)C(C)C | – | 185 nM | 0.014 nM | – | 0.04 nM
3 | COC(=O)N[C@H](C(=O)N1CCC[C@H]1c1ncc(-c2ccc(-c3ccc4c(ccc5nc([C@@H]6C[Si](C)(C)CN6C(=O)[C@@H](NC(=O)OC)C6CCCC6)[nH]c54)c3)cc2)[nH]1)C(C)C | – | 471 nM | – | – | 0.09 nM
4 | CCC(C)[C@H](NC(=O)OC)C(=O)N1CCC[C@H]1c1ncc(-c2ccc(-c3ccc4c(ccc5nc([C@@H]6C[Si](C)(C)CN6C(=O)[C@@H](NC(=O)OC)C(C)C)[nH]c54)c3)cc2)[nH]1 (some centres not stated) | – | 640 nM | – | – | 0.15 nM
5 | COC(=O)N[C@H](C(=O)N1C[Si](C)(C)C[C@H]1c1ncc(-c2ccc(-c3cc4c(ccc5nc([C@@H]6CCCN6C(=O)[C@@H](NC(=O)OC)C(C)C)[nH]c54)s3)cc2)[nH]1)C(C)C | – | 2330 nM | 0.006 nM | – | > 1 nM
6 | COC(=O)N[C@H](C(=O)N1C[Si](C)(C)C[C@H]1c1ncc(-c2ccc(-c3ccc4c(ccc5nc([C@@H]6CCCN6C(=O)[C@@H](NC(=O)OC)C(C)C)[nH]c54)c3)cc2OC)[nH]1)C(C)C | – | 497 nM | – | – | 0.27 nM
7 | CCC(C)[C@H](NC(=O)OC)C(=O)N1C[Si](C)(C)C[C@H]1c1nc2ccc3cc(-c4ccc(-c5cnc([C@@H]6CCCN6C(=O)[C@@H](NC(=O)OC)C(C)C)[nH]5)cc4)ccc3c2[nH]1 (some centres not stated) | – | 279 nM | – | – | 0.08 nM
8 | COC(=O)N[C@H](C(=O)N1C[Si](C)(C)C[C@H]1c1nc2ccc3cc(-c4ccc(-c5cnc([C@@H]6CCCN6C(=O)[C@@H](NC(=O)OC)C(C)OC)[nH]5)cc4)ccc3c2[nH]1)C(C)C (some centres not stated) | – | 225 nM | – | – | 0.07 nM
9 | COC(=O)N[C@H](C(=O)N1CCC[C@H]1c1ncc(-c2ccc(-c3cc4cc(-c5cnc([C@@H]6C[Si](C)(C)CN6C(=O)[C@@H](NC(=O)OC)C(C)C)[nH]5)ccc4o3)cc2)[nH]1)C(C)C | 15 nM | 153 nM | 0.003 nM | 2.4 nM | 0.04 nM
10 | COC(=O)N[C@H](C(=O)N1C[Si](C)(C)C[C@H]1c1nc2ccc3cc(-c4ccc(-c5cnc([C@@H]6[C@@H]7C[C@@H](C(F)C7F)N6C(=O)[C@@H](NC(=O)OC)C(C)C)[nH]5)cc4)ccc3c2[nH]1)C(C)C (some centres not stated) | – | 204 nM | 0.002 nM | – | 0.04 nM
11 | COC(=O)N[C@H](C(=O)N1C[C@H](O)C[C@H]1c1ncc(-c2ccc(-c3ccc4c(ccc5nc([C@@H]6C[Si](C)(C)CN6C(=O)[C@@H](NC(=O)OC)C(C)C)[nH]c54)c3)cc2)[nH]1)C(C)C | – | 44 nM | 0.005 nM | – | 0.06 nM
12 | COC(=O)N[C@H](C(=O)N1CC(C)(C)C[C@H]1c1ncc(-c2ccc(-c3ccc4c(ccc5nc([C@@H]6C[Si](C)(C)CN6C(=O)[C@@H](NC(=O)OC)C(C)C)[nH]c54)c3)cc2)[nH]1)C(C)C | – | 90 nM | 0.003 nM | – | 0.015 nM
13 | COC(=O)N[C@H](C(=O)N1C[Si](C)(C)C[C@H]1c1nc2ccc3cc(-c4ccc(-c5cnc([C@@H]6[C@H]7CC[C@H](C7)N6C(=O)[C@@H](NC(=O)OC)C(C)C)[nH]5)cc4)ccc3c2[nH]1)C(C)C | – | 131 nM | 0.01 nM | – | 0.09 nM
14 | COC(=O)N[C@H](C(=O)N1C[Si](C)(C)C[C@H]1c1nc2ccc3cc(-c4ccc(-c5cnc([C@@H]6CCCN6C(=O)[C@@H](NC(=O)OC)C6CCCC6)[nH]5)cc4)ccc3c2[nH]1)C(C)C | – | 590 nM | – | – | 0.2 nM
15 | COC(=O)N[C@H](C(=O)N1C[C@H](F)C[C@H]1c1ncc(-c2ccc(-c3ccc4c(ccc5nc([C@@H]6C[Si](C)(C)CN6C(=O)[C@@H](NC(=O)OC)C(C)C)[nH]c54)c3)cc2)[nH]1)C(C)C | – | 27 nM | 0.006 nM | – | 0.07 nM
16 | COC(=O)N[C@H](C(=O)N1CCC[C@H]1c1ncc(-c2ccc(-c3ccc(-c4cnc([C@@H]5C[Si](C)(C)CN5C(=O)[C@@H](NC(=O)OC)C(C)C)[nH]4)cc3)cc2)[nH]1)C(C)C | 0.5 nM | 92 nM | 0.003 nM | 0.04 nM | 0.04 nM

Row | Compound | EC50 [1] | EC50 [2] | EC50 [3] | EC50 [4] | EC50 [5]
17 | COC(=O)N[C@H](C(=O)N1C[Si](C)(C)C[C@H]1c1nc2ccc3cc(-c4ccc(-c5cnc([C@@H]6CCCN6C(=O)[C@@H](NC(=O)OC)C6CC6)[nH]5)cc4)ccc3c2[nH]1)C(C)C | – | 260 nM | – | – | 0.08 nM
18 | COC(=O)N[C@H](C(=O)N1C[Si](C)(C)C[C@H]1c1nc2ccc3cc(-c4ccc(-c5cnc([C@@H]6CCCN6C(=O)[C@@H](NC(=O)OC)C(C)O)[nH]5)cc4)ccc3c2[nH]1)C(C)C (some centres not stated) | – | 579 nM | – | – | 0.14 nM
19 | COC(=O)N[C@H](C(=O)N1CCC[C@H]1c1ncc(-c2ccc(-c3ccc4c(ccc5nc([C@@H]6C[Si](C)(C)CN6C(=O)[C@@H](NC(=O)OC)C(C)OC)[nH]c54)c3)cc2)[nH]1)C(C)C (some centres not stated) | – | 275 nM | – | – | 0.03 nM
20 | COC(=O)N[C@H](C(=O)N1C[Si]2(CCCC2)C[C@H]1c1ncc(-c2ccc(-c3ccc4c(ccc5nc([C@@H]6CCCN6C(=O)[C@@H](NC(=O)OC)C(C)C)[nH]c54)c3)cc2)[nH]1)C(C)C | 0.2 nM | 350 nM | – | 0.01 nM | 0.06 nM
21 | COC(=O)N[C@H](C(=O)N1C[Si](C)(C)C[C@H]1c1ncc(-c2ccc(-c3ccc4nc([C@@H]5CCCN5C(=O)[C@@H](NC(=O)OC)C(C)C)[nH]c4c3)cc2)[nH]1)C(C)C | – | 9920 nM | 0.004 nM | – | > 1 nM
22 | COC(=O)N[C@H](C(=O)N1C[Si](C)(C)C[C@H]1c1ncc(-c2ccc(-c3ccc4c(ccc5nc([C@@H]6C[C@@H](F)CN6C(=O)[C@@H](NC(=O)OC)C(C)C)[nH]c54)c3)cc2)[nH]1)C(C)C | – | 10 nM | 0.003 nM | – | 0.02 nM
23 | COC(=O)N[C@H](C(=O)N1C[Si](C)(C)C[C@H]1c1ncc(-c2ccc(-c3ccc4c(ccc5nc([C@@H]6CCCN6C(=O)[C@@H](NC(=O)OC)C(C)C)[nH]c54)c3)cc2F)[nH]1)C(C)C | – | 329 nM | – | – | 0.05 nM
24 | COC(=O)N[C@H](C(=O)N1C[Si](C)(C)C[C@H]1c1ncc(-c2ccc(-c3ccc4c(ccc5nc([C@@H]6CCCN6C(=O)[C@@H](NC(=O)OC)C(C)C)[nH]c54)c3)cc2C2CC2)[nH]1)C(C)C | – | 1600 nM | – | – | 0.43 nM
25 | COC(=O)N[C@H](C(=O)N1C[Si](C)(C)C[C@H]1c1ncc(-c2ccc(-c3ccc(-c4cnc([C@@H]5C[Si](C)(C)CN5C(=O)[C@@H](NC(=O)OC)C(C)C)[nH]4)cc3)cc2)[nH]1)C(C)C | 4.1 nM | > 1000 nM | 0.01 nM | 0.25 nM | 0.2 nM
26 | COC(=O)N[C@H](C(=O)N1C[Si](C)(C)C[C@H]1c1ncc(-c2ccc(-c3ccc4c(ccc5nc([C@@H]6CCCN6C(=O)[C@@H](NC(=O)OC)C(C)C)[nH]c54)c3)cc2-c2cccs2)[nH]1)C(C)C | – | 1150 nM | – | – | 0.5 nM
27 | COC(=O)N[C@H](C(=O)N1CCC(F)(F)C[C@H]1c1ncc(-c2ccc(-c3ccc4c(ccc5nc([C@@H]6C[Si](C)(C)CN6C(=O)[C@@H](NC(=O)OC)C(C)C)[nH]c54)c3)cc2)[nH]1)C(C)C | – | 728 nM | – | – | 0.1 nM
28 | COC(=O)N[C@H](C(=O)N1C[Si](C)(C)C[C@H]1c1nc2ccc3cc(-c4ccc(-c5cnc([C@@H]6C[C@H]7C[C@H]7N6C(=O)[C@@H](NC(=O)OC)C(C)C)[nH]5)cc4)ccc3c2[nH]1)C(C)C | – | 30 nM | – | – | –
29 | COC(=O)N[C@H](C(=O)N1CCC[C@H]1c1ncc(-c2ccc(-c3ccc4c(ccc5nc([C@@H]6C[Si](C)(C)CN6C(=O)[C@@H](NC(=O)OC)C6CC6)[nH]c54)c3)cc2)[nH]1)C(C)C | – | 87 nM | – | – | 0.05 nM
30 | COC(=O)N[C@H](C(=O)N1CCC[C@H]1c1ncc(-c2ccc(-c3ccc4c(ccc5nc([C@@H]6C[Si](C)(C)CN6C(=O)[C@@H](NC(=O)OC)C(C)O)[nH]c54)c3)cc2)[nH]1)C(C)C (some centres not stated) | – | > 1000 nM | – | – | 0.6 nM
31 | COC(=O)N[C@H](C(=O)N1C[Si](C)(C)C[C@H]1c1ncc(-c2ccc(-c3ccc4c(ccc5nc([C@@H]6CCCN6C(=O)[C@@H](NC(=O)OC)C(C)C)[nH]c54)c3)s2)[nH]1)C(C)C | – | 921 nM | 0.004 nM | – | 0.14 nM
32 | COC(=O)N[C@H](C(=O)N1CCS(=O)(=O)C[C@H]1c1ncc(-c2ccc(-c3ccc4c(ccc5nc([C@@H]6C[Si](C)(C)CN6C(=O)[C@@H](NC(=O)OC)C(C)C)[nH]c54)c3)cc2)[nH]1)C(C)C | – | 380 nM | 0.01 nM | – | 0.2 nM
